Where a name gives a salt, the structure may show the parent alone.
What was measured:
[1] = tested on: intervillous space - trophoblast barrier; assay: Morphological effects of toxic exposure in the in vitro placenta device; type: cell-based; details: injected into the maternal channel at 3 μL/min for 4 min, incubated at 37° C. for 15 min; FIG. 10
Text: In some embodiments, the in vitro placental model device can be used for studying toxicity of test agents to the placenta. Certain compounds not only induce fetal toxicity upon crossing the placental barrier, but also disrupt the barrier itself. The microfluidic placental barrier model can be used to study response to toxic exposure of test agents. The impact to barrier function can be assessed through permeability comparisons and toxicity (e.g., cytotoxicity, etc.) can be assessed off chip by various methods (e.g., cell lysate luminescence assay, genomic analysis, etc.).
For example, an in vitro placenta device was exposed to trypan blue by injection into the maternal channel at 3 μL/min for 4 min and then incubated at 37° C. for 15 min, similar to protocols in literature^7,8. […] White arrows show barrier degradation, and dark arrows show apoptosis following trypan blue exposure.

trophoblast channel = assay: Cytotoxicity by adenylate kinase release (luminescence); type: cell-based; details: samples from the trophoblast channel; FIG. 11
Experimental: Following exposure, FSS was injected into the maternal channel and permeability assayed. Permeability in the devices was 10-fold higher in trypan blue treated devices compared to controls. An additional assay was performed to determine cytotoxicity as it relates to the release of adenylate kinase. A positive control (100% death by lysis buffer) and a negative control (media only) were included for comparison. Samples were taken from the trophoblast channel and placed in a low volume, white walled […] plate for luminescence analysis using a plate reader. […] The increase in AK release in arbitrary luminescence units compares the toxic exposure of trypan blue to positive and negative controls.

[2] = tested on: in vitro placenta device (coculture of Bewo trophoblasts and HUVEC); assay: Maternal-placental size exclusion (permeability index) in the in vitro placenta device; type: in vitro ADME, human; details: injected into the maternal vascular channel at 0.1 μL/min for 1 hour; FIG. 9B
Experimental: Again, devices can be placed in the incubator.
In another example, one embodiment of the present invention was used to evaluate maternal-placental size exclusion, where a fluorescein sodium salt (FSS) solution was injected into the maternal vascular channel at 0.1 μL/min for 1 hour. […] PI was expected to decrease as a function of compound molecular weight.

Row | increase in average PI compared to 4 kD TRITC-dextran [2] | SMILES | morphological effects of exposure [1] | increase in adenylate kinase release (trophoblast channel)
1 |  | Cc1cc(-c2ccc(/N=N/c3c(S(=O)(=O)O)cc4cc(S(=O)(=O)O)cc(N)c4c3O)c(C)c2)ccc1/N=N/c1c(S(=O)(=O)O)cc2cc(S(=O)(=O)O)cc(N)c2c1O [trypan blue] | barrier degradation (e.g., cell death and detachment) and apoptosis | 1.5 fold
2 | ~2 fold | O=C1OC2(c3ccc(O)cc3Oc3cc(O)ccc32)c2ccccc21 [FSS, fluorescein sodium salt] |  | 
